Test results taken from patent US9497963B2, “Methods and compositions for control of gypsy moth, Lymantria dispar” (Simon Fraser University, priority 2008, dated 2016).

Columns and labels:
gypsy moths = test: Field test of trap catches, Northern Japan 2009 (Example 12); format: in vivo, Lymantria dispar; conditions: (+)-dis 40 μg/lure & compound 40 mg/lure, vs (+)-dis alone
Protocol: Ten traps were used per treatment. The solvent used to deliver the compounds onto the lures was doubly distilled hexane. The hexane was evaporated prior to packing and shipping the lures. The field test was conducted in 10 replicates in Northern Japan. The test was conducted Aug. 16-18, 2009, in an area where gypsy moths are known to live. […] Traps were arranged randomized, placed on platforms. The experiment was conducted blind. The lures contained 40 μg disparlure/lure, a low dose for a field trial (typically 100 μg-1 mg are used). For each treatment, 10 traps were deployed.

male gypsy moth antenna [1] = test: EAG effects of 3c{1,3} with (+)-disparlure at different ratios (Example 14); parameters: species or system Lymantria dispar; conditions: for STI (short-term inhibition): mixture relative to first puff of pure (+)-disparlure
Source text: The compound has the following effects in the EAG at the following ratios: […]

male gypsy moth antenna [2] = test: EAG dose response and ratio tests of (+)-disparlure:3c{1,3} (Example 16); parameters: species or system Lymantria dispar; conditions: (+)-disparlure:compound ratios about 1:300 to about 1:2000 or greater
Protocol: Dose response and ratio tests were done at each of the following (+)-disparlure concentrations: 1 ng, 10 ng, 50 ng, 100 ng, 500 ng and 1000 ng, the following ratios of (+)-disparlure:3c{1,3} were tested: 1:100, 1:300, 1:500, 1:700, 1:1000, 1:1500 and 1:2000 (FIG. 19).

moths = test: Simple behavioural tests (films of moths exposed to puffs); format: in vivo, Lymantria dispar; conditions: (+)-disparlure:compound 1:1000 vs pheromone alone
gypsy moth sensillum = test: Single sensillum recordings; parameters: species or system Lymantria dispar; conditions: (+)-disparlure and compound mixed 1:1000
[3] = system: male gypsy moth antennae response to pheromone (+)-1 with plant odors; test: Effect on mixed pheromone/plant odorant stimulus, EAG (Example 8, second objective); parameters: species or system Lymantria dispar
Protocol: A second objective for this experiment was to determine whether the oak volatiles, methyl eugenol and 1-hexanol, can enhance the antennal response to (+)-1 and whether the mixed pheromone/plant odorant stimulus can be inhibited by compound 3c{2,3} or DEET. The puff order was: i) air, ii) pure (+)-1 (100 ng), iii) (+)-1 (100 ng) and plant odorant (1 μg for methyl eugenol and 100 μg for 1-hexanol), iv) (+)-1 and plant odorant as in iii+antagonist (100 μg), v) same as in iii. Depolarizations were corrected for the air response as in Eq. 1 and the short-term effects were calculated for puff iii relative to puff ii, and for puff iv relative to puff ii. Long-term effects were calculated for puff v relative to puff iii (for LTI of the mixed pheromone/plant odorant plume) and for puff v relative to puff ii (to determine whether long-term effects of the plant odorant and of the antagonist cancel).

[4] = system: male gypsy moth antenna response to odorants other than (+)-1; test: Long-term inhibition of responses to other pheromone and host plant odorants, EAG (Example 8, first objective); parameters: species or system Lymantria dispar; conditions: antagonist 100 μg
Protocol: To determine whether the long-term inhibitory effects of 3c{2,3} and DEET are specific to (+)-1 or also apply to other odorants, compound 3c{2,3} and DEET were tested further with other odorants: (−)-1, racemic 1, dispar alkene, methyl eugenol and 1-hexanol.
These included (−)-1, racemic 1, dispar alkene (the alkene corresponding to the carbon framework of 1), methyl eugenol (a characteristic oak wood odorant) and 1-hexanol (a green leaf volatile, shown previously to be detected by gypsy moth antennae). For the pure odorant puffs, (−)-1 and racemic 1 were administered at 100 ng/cartridge, the alkene, methyl eugenol was administered at 1 μg/cartridge and 1-hexanol was administered at 100 μg/cartridge. The antagonists were both administered at 100 μg/cartridge, mixed with the appropriate dose of the odorant. The puff order was: i) air, ii) pure odorant, iii) odorant+antagonist, iv) pure odorant. All puffs were corrected for the air response as in Eq. 1. STI values were obtained from the depolarization […]. LTI values were obtained by comparing the depolarization of puff iv relative to that of puff ii.

[5] = plant synergist 1-hexanol 100 μg
[6] = plant synergist methyl eugenol 1 μg
[7] = odorant racemic disparlure 100 ng

CCCOc1ccc(OC)cc1 [3c{1,3}, 1-methoxy-4-propoxy-benzene]
trap catches in the field (gypsy moths): enhanced the trap catches significantly | STI (short-term inhibition) (male gypsy moth antenna [1]; 100 ng (+)-disparlure + 1 μg 3c{1,3}, ratio 1:10 by mass): 28 ± 16 (6) | STI (short-term inhibition) (male gypsy moth antenna [1]; 100 ng (+)-disparlure + 10 μg 3c{1,3}, ratio 1:100 by mass): −2 ± 5 (6) | STI (short-term inhibition) (male gypsy moth antenna [1]; 100 ng (+)-disparlure + 100 μg 3c{1,3}, ratio 1:1000 by mass): 48 ± 14 (6) | LTI (long-term inhibition) (male gypsy moth antenna [1]; (+)-disparlure puff immediately after last mixed puff (1:1000 ratio), relative to first (+)-disparlure reference puff): 39 ± 12 (6) | EAG depolarization shape (in words) (male gypsy moth antenna [2]): increasingly broad depolarizations | behaviour of moths exposed to puffs (moths): excited and violently flap their wings much longer | enhancement of neuronal activity (gypsy moth sensillum): significant

CCCOc1ccc(OCC)cc1 [3c{2,3}, 1-ethoxy-4-propoxy benzene]
trap catches in the field (gypsy moths): enhanced the trap catches significantly | short-term effect with plant synergist + antagonist ([3]; (+)-1 100 ng + 1-hexanol 100 μg + antagonist 100 μg): −99 ± 60 (5) | short-term effect with plant synergist + antagonist ([3]; (+)-1 100 ng + methyl eugenol 1 μg + antagonist 100 μg): −125 ± 95 (4) | long-term effect on (+)-1 response [3, 5]: 20 ± 18 (5) | long-term effect on the mixed (+)-1/plant odor plumes [3, 5]: 5 ± 24 (5) | long-term effect on (+)-1 response [3, 6]: 12 ± 33 (4) | long-term effect on the mixed (+)-1/plant odor plumes [3, 6]: 11 ± 47 (4) | long-term activity (%) ([4]; odorant 1-hexanol 100 μg): 29 ± 18% | short-term activity (%) ([4]; odorant 1-hexanol 100 μg): −34 ± 28% | long-term activity (%) ([4]; odorant (−)-disparlure 100 ng): 43 ± 12% | long-term activity (%) ([4]; odorant dispar alkene 1 μg): 39 ± 12% | short-term activity (%) ([4]; odorant dispar alkene 1 μg): −244 ± 15% | long-term activity (%) ([4]; odorant methyl eugenol 1 μg): 46 ± 24% | long-term activity (%) [4, 7]: 69 ± 5% | short-term activity (%) [4, 7]: −154 ± 45%
